These compounds were tested against T1, integrin α4β7 (RPMI-8866 cells) binding with rat MAdCAM-1/human IgG1 chimera protein (Homo sapiens, UniProt P13612+P26010) (assay: Rat MAdCAM-1 antagonistic activity (rat MAdCAM-1/α4β7 binding assay), RPMI-8866 cell adhesion). Conditions: 4 mM MnCl2, read-out: MadCAM/α 4 β 7 antagonistic activity to integrin (IC50).
T1 construct: lymphoma cell strain RPMI-8866 of human B cells, known to express integrin α4β7; endogenous in cells; host or cells: RPMI-8866 (human B-cell lymphoma line)
T1 sequence (P13612 34-1032): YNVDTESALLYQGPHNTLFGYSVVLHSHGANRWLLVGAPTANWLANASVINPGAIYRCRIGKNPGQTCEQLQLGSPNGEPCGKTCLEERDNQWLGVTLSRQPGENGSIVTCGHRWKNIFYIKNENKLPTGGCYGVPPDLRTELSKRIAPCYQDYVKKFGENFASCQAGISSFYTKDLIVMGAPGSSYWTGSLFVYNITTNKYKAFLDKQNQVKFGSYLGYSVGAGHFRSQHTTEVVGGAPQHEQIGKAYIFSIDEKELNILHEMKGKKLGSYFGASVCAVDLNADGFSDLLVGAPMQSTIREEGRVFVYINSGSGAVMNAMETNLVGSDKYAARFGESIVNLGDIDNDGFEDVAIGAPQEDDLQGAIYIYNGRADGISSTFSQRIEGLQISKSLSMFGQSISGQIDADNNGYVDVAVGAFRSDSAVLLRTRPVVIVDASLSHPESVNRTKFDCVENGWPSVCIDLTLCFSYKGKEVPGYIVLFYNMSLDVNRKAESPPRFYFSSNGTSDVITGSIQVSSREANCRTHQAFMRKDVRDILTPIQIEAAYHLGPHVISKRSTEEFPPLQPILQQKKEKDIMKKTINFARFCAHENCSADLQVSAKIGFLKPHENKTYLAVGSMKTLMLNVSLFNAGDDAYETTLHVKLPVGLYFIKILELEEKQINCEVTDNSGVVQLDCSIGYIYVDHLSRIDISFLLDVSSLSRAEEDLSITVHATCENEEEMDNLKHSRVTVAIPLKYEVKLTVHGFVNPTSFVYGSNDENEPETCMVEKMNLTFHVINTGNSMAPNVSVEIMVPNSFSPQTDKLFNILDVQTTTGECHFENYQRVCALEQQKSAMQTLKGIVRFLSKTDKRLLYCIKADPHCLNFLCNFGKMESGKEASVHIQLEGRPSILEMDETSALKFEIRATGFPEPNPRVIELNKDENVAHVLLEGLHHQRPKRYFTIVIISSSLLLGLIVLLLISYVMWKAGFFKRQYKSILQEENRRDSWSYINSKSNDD
T1 sequence (P26010 20-798): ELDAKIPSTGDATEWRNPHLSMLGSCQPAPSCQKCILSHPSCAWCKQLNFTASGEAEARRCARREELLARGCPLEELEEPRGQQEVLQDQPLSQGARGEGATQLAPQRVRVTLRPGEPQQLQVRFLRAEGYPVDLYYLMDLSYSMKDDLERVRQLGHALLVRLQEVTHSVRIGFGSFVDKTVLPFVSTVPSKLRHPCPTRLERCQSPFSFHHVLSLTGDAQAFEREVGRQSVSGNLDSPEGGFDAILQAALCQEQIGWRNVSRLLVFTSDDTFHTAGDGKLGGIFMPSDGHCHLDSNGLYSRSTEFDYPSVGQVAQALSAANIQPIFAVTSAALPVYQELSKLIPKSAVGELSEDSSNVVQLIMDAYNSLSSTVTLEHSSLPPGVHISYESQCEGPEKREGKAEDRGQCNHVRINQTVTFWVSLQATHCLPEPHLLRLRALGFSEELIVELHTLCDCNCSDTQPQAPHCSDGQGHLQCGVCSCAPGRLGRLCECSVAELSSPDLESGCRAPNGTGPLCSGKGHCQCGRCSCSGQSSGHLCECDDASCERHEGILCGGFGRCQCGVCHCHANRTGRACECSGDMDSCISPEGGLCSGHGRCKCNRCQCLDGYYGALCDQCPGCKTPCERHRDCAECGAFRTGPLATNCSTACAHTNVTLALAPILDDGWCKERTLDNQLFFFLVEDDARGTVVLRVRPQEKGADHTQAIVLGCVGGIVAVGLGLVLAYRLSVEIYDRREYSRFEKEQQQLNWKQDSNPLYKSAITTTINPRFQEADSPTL
Type: cell-based
Method: (Test Example) Rat MAdCAM-1 Antagonistic Activity (rat MAdCAM-1/α4β7 Binding Assay):
The capacity of a test substance antagonistic to the binding of lymphoma cell strain RPMI-8866 of human B cells, known to express integrin α4β7, with rat MAdCAM-1/human IgG1 chimera protein was determined.
100 μl/well of human IgG1 antibody (SIGMA #I-6260) diluted with buffer A to 1/1,000 concentration was added to a micro titer plate having 96 wells. After the incubation at 4° C. overnight, the plate was washed with PBS once. 100 μl/well of rat MAdCAM-1/human IgG1 chimera protein solution diluted with a buffer (buffer C)obtained by diluting Block Ace® (Dainippon Pharmaceutical Co., Ltd.) with PBS to 1/10 concentration was added in an amount of 100 μl/well. After the incubation at 37° C. for 2 hours, unbound MAdCAM-1/IgG was removed by washing once with PBS. After completion of the washing, 150 μl/well of buffer B was added and the incubation was continued at room temperature for 1 hour. Buffer B was removed and then the plate was washed with PBS once.
RPMI-8866 cells were incubated in DMEM containing 10 μg/ml of Calcein-AM at 37° C. for 30 minutes to label them with fluorescence. The cells were again suspended in a binding buffer containing 4 mM of MnCl2.
50 μl of a test substance of various concentrations obtained by the dilution with the binding buffer was added to the plate. Immediately thereafter, 50 μl (final volume: 100 μl/well) of the fluorescent RPMI-8866 cells (4×10^6 cells/ml ) were added thereto, and they were incubated at room temperature for 30 minutes. After the shaking on a plate shaker (IKA MTS-4) at 800 rpm for 30 seconds, the solution was immediately removed to remove the unbound cells. The fluorescence quantity of the bound cells remaining in the wells was determined with a fluorescent plate reader (Wallac 1420 ARVO multi-label counter). The fluorescent strength thus obtained is proportional to the number of RPMI-8866 cells bound to MAdCAM-1 and remaining on the plate. The binding rate of each test material in various concentrations was determined while the fluorescent strength of the test material-free well was determined to be 100%. The concentration IC50 for the 50% binding inhibition was calculated.

Row | Compound | IC50 [nM]
1 | O=C(O)[C@H](Cc1ccc(OCc2c(Cl)cccc2Cl)cc1)NC(=O)[C@H]1CC[C@H](C(=O)O)CC1 [Example 2, N-(Trans-4-carboxycyclohexane-1-carbonyl)-O-(2,6-dichlorobenzyl)-L-tyrosine] | ≤ 200
2 | O=C(O)[C@H](Cc1ccc(OCc2c(Cl)cccc2Cl)cc1)NC(=O)[C@H]1CC[C@H](C(=O)NNc2ccccc2)CC1 [Example 3, N-(Trans-4-phenylhydrazinocarbonylcyclohexane-1-carbonyl)-O-(2,6-dichlorobenzyl)-L-tyrosine] | 200 to 1000
3 | O=C(O)[C@H](Cc1ccc(OCc2c(Cl)cccc2Cl)cc1)NC(=O)[C@H]1CC[C@H](C(=O)NNc2ccc(Br)cc2)CC1 [Example 4, N-[Trans-4-(4-bromophenylhydrazinocarbonyl)cyclohexane-1-carbonyl]-O-(2,6-dichlorobenzyl)-L-tyrosine] | 200 to 1000
4 | O=C(O)[C@H](Cc1ccc(OCc2c(Cl)cccc2Cl)cc1)NC(=O)[C@H]1CC[C@H](C(=O)NCc2ccccc2)CC1 [Example 6] | 1000 to 5000
5 | COc1ccc(NNC(=O)[C@H]2CC[C@H](C(=O)N[C@@H](Cc3ccc(OCc4c(Cl)cccc4Cl)cc3)C(=O)O)CC2)cc1 [Example 14] | 200 to 1000
6 | Cc1ccc(NNC(=O)[C@H]2CC[C@H](C(=O)N[C@@H](Cc3ccc(OCc4c(Cl)cccc4Cl)cc3)C(=O)O)CC2)cc1 [Example 34] | 200 to 1000
7 | O=C(O)[C@H](Cc1ccc(OCc2c(Cl)cccc2Cl)cc1)NC(=O)[C@H]1CC[C@H](C(=O)NNc2ccc(OC(F)(F)F)cc2)CC1 [Example 35] | 1000 to 5000
8 | COc1cccc(NNC(=O)[C@H]2CC[C@H](C(=O)N[C@@H](Cc3ccc(OCc4c(Cl)cccc4Cl)cc3)C(=O)O)CC2)c1 [Example 44] | 200 to 1000
9 | O=C(Nc1ccc(C[C@H](NC(=O)[C@H]2CC[C@H](C(=O)O)CC2)C(=O)O)cc1)c1snnc1-c1ccccc1 [Example 45, N-(Trans-4-carboxycyclohexane-1-carbonyl)-4-{[(4-phenyl-1,2,3-thiadiazole-5-yl)carbonyl]amino}-L-phenylalanine] | 1000 to 5000
10 | COc1ccc(NNC(=O)[C@H]2CC[C@H](C(=O)N[C@@H](Cc3ccc(NC(=O)c4snnc4-c4ccccc4)cc3)C(=O)O)CC2)cc1 [Example 46, N-[Trans-4-(4-methoxyphenylhydrazinocarbonyl)cyclohexane-1-carbonyl]-4-{[(4-phenyl-1,2,3-thiadiazole-5-yl)carbonyl]amino}-L-phenyl-alanine] | 1000 to 5000
11 | COc1cccc(OC)c1-c1ccc(C[C@H](NC(=O)[C@H]2CC[C@H](C(=O)O)CC2)C(=O)O)cc1 [Example 50, N-(Trans-4-carboxycyclohexane-1-carbonyl)-4-(2,6-dimethoxyphenyl)-L-phenylalanine] | 1000 to 5000
12 | COc1ccc(NNC(=O)[C@H]2CC[C@H](C(=O)N[C@@H](Cc3ccc(-c4c(OC)cccc4OC)cc3)C(=O)O)CC2)cc1 [Example 51, N-[Trans-4-(4-methoxyphenylhydrazinocarbonyl)cyclohexane-1-carbonyl]-4-(2,6-dimethoxyphenyl)-L-phenylalanine] | 200 to 1000
